# According to patent US20230048888A1, “USE OF TRIAZOLOTRIAZINE DERIVATIVE IN TREATMENT OF DISEASES” (ZHEJIANG VIMGREEN PHARMACEUTICALS, LTD., priority 2019, published 2023):
# Experiments:
# [1] = test system: haloperidol-induced stiffness; test: Haloperidol-induced Parkinson's disease stiffness model in CD-1 mice (rearing and bar tests); format: in vivo; settings: Experiment I
# Excerpt: Parkinson's disease (PD) is a common class of degenerative disease of the nervous system with the main pathological changes including the loss of substantia nigra dopaminergic neurons and the decrease of dopamine transmitter content, leading to tremor at rest, muscle stiffness, […], postural reflex disorders and other clinical symptoms. Haloperidol, a dopamine D2 receptor blocker, can block the dopamine D2 receptor in the striatum, leading to mouse dystonic postures, namely, stiffness and hypokinesia. This model is a recognized animal model of Parkinson's syndrome. The ameliorative effect of a test substance on the stiffness symptom of Parkinson's disease induced by haloperidol in CD-1 mice was evaluated. 57 SPF-grade male CD-1 mice (4 weeks old at the time of purchase and 8 weeks old at the time of experiment) with the weight of about 40 g were randomly divided into 5 groups, namely, a vehicle group (n=11), a group of 1 mg/kg benzene sulfonate of Compound 40 (n=11), a group of 3 mg/kg benzene sulfonate of Compound 40 (n=12), a group of 10 mg/kg benzene sulfonate of Compound 40 (n=12), and a group of 30 mg/kg benzene sulfonate of Compound 40 (n=11). 1 mg/kg haloperidol was injected subcutaneously at an injection volume of 10 ml/kg. 30 minutes after the injection, Compound 40 at each dose was intragastrically infused at a volume of 10 ml/kg. At the 1st hour and the 4th hour after the administration was completed, the rearing and bar tests were performed respectively, and the number of standings and on-bar time of the mice were counted to evaluate the ameliorative effect of Compound 40 on the stiffness symptom of haloperidol-induced Parkinson's disease in CD-1 mice. […] Firstly, the acetate of Compound 22 at each dose was intragastrically infused at a volume of 10 ml/kg. After 30 min, 1 mg/kg haloperidol was injected subcutaneously at an injection volume of 10 ml/kg. At the 1st hour and the 4th hour after the administration was completed, the rearing and bar tests were performed respectively, and the number of standings and on-bar time of the mice were counted to evaluate the ameliorative effect of the acetates of Compound 22 on the stiffness symptom of haloperidol-induced Parkinson's disease in CD-1 mice. […] Firstly, Compound 27 at each dose was intragastrically infused at a volume of 10 ml/kg. After 30 min, 1 mg/kg haloperidol was injected subcutaneously at an injection volume of 10 ml/kg. At the 1st hour and the 4th hour after the administration was completed, the rearing and bar tests were performed respectively, and the number of standings and on-bar time of the mice were counted to evaluate the ameliorative effect of Compound 27 on the stiffness symptom of haloperidol-induced Parkinson's disease in CD-1 mice. The mice were subcutaneously injected with haloperidol at abdomen at a dose of 1 mg/kg, with the concentration of a working solution of 0.1 mg/ml and an injection volume of 10 ml/kg. At the 1st hour and the 4th hour after drug intervention, the mice were put into a white transparent plastic bucket with a diameter of 20 cm and a height of 21 cm. The mice were allowed to acclimate in the bucket for 5 min before starting video recording. The spontaneous activity behaviors of the mice within 10 minutes were recorded, whereby the number of standings was counted. The more the standings, the more frequent the spontaneous exploration activities of the mice, and the lower the degree of stiffness. At the time points of 1st and 4th hours after the rearing test was completed, bar test was carried out. The mice were placed on a long wooden bar with a diameter of […] and a height of 6 cm. The mice were let to hold the wooden bar with forelimbs, only with the buttocks or hind limbs on the ground. The timing was stopped when the hind limbs left the bench top or the fore limbs left the wooden bar, and the on-bar time of the mice was recorded. Each mouse was tested 3 times, and the maximum on-bar time and the average on-bar time were counted. […]
# [2] = test system: haloperidol-induced stiffness; test: Haloperidol-induced Wistar rat stiffness model (bar test, rearing); format: in vivo, Wistar rats; settings: for Number of standings: 1st hour after haloperidol
# Method: Time of bar test: The stiffness of the rats was tested by the bar test. That is, a wooden bar with a diameter of 8 mm was fixed between 2 iron stands and was 10 cm from the bench top; and then, the rat's tail was grabbed to make its front paws rest on the wooden bar and its hind paws or buttocks on the ground. Generally, the rat needs to acclimate several times when it was tested for the first time. The time for the forelimbs to drop from the bar or the time for the hind limbs to leave the bench top were tested, each rat was tested 3 times. Number of standings: the number of standings of the rat was measured by the rearing test. That is, the rat was placed in a 27*52 cm cage and acclimate for 5 minutes, and the spontaneous activity behavior, i.e., the number of standings, of the rat within 10 minutes was recorded. When the rat's hind limbs stood with two forelimbs raised over the shoulders and touched the ground, one standing is counted, and the one forelimb lift was excluded. Generally, the rat would raise its forelimbs to touch the cage wall. If the rat raised its forelimbs over the shoulders several times without falling to the ground, only one standing was counted. The time of bar test was taken as a measurement index, including the average time and the maximum time. Long time indicates severe stiffness, short time indicates mild stiffness. After drug treatment, the shorter the time of bar test, the better the effect of the drug on relieving stiffness. The number of standings was counted by the rearing test. The more the number of standings, the more frequent the spontaneous exploration activity of the rat, and the lower the stiffness. The statistical analysis between groups was performed on the data by using Prism GraphPad 7.0 independent sample T test, and P<0.05 was considered as a significant difference.
# [3] = Pharmacokinetics of Compound 40 and benzene sulfonate thereof in ICR mice, PO; settings: mouse, in vivo, PO 100 mg/kg (based on free base), 40% Hp-β-CD
# [4] = 10 mg/kg intragastric, 1st hour
# [5] = 10 mg/kg intragastric, 4th hour
# [6] = 30 mg/kg intragastric, 1st hour
# [7] = 30 mg/kg intragastric, 4th hour
smiles,measurement,setting,value
"Cn1nnc(-c2ccc(CCNc3nc(N)n4nc(-c5ccco5)nc4n3)cc2)n1.O=S(=O)(O)c1ccccc1 [Benzene sulfonate of Compound 40, N^5-(4-(2-methyl-2H-tetrazol-5-yl)phenethyl)-2-(furan-2-yl)-[1,2,4]triazolo[1,5-a][1,3,5]triazine-5,7-diamine benzene sulfonate]",Average on-bar time,"[1]; 1 mg/kg intragastric, 1st hour",237.67 ± 40.20 s
same,Maximum on-bar time,"[1]; 1 mg/kg intragastric, 1st hour",356.43 ± 55.79 s
same,Number of standings,"[1]; 1 mg/kg intragastric, 1st hour",17.00 ± 1.99
same,Average on-bar time,"[1]; 1 mg/kg intragastric, 4th hour",241.14 ± 31.32 s
same,Maximum on-bar time,"[1]; 1 mg/kg intragastric, 4th hour",361.29 ± 53.92 s
same,Number of standings,"[1]; 1 mg/kg intragastric, 4th hour",8.71 ± 2.68
same,Average on-bar time,"[1]; 3 mg/kg intragastric, 1st hour",120.05 ± 35.31 s
same,Maximum on-bar time,"[1]; 3 mg/kg intragastric, 1st hour",184.00 ± 50.55 s
same,Number of standings,"[1]; 3 mg/kg intragastric, 1st hour",17.00 ± 2.99
same,Average on-bar time,"[1]; 3 mg/kg intragastric, 4th hour",171.76 ± 52.86 s
same,Maximum on-bar time,"[1]; 3 mg/kg intragastric, 4th hour",225.14 ± 51.96 s
same,Number of standings,"[1]; 3 mg/kg intragastric, 4th hour",14.86 ± 1.89
same,Average on-bar time,[1]; [4],36.10 ± 5.88 s
same,Maximum on-bar time,[1]; [4],57.00 ± 11.21 s
same,Number of standings,[1]; [4],34.90 ± 4.75
same,Average on-bar time,[1]; [5],66.07 ± 13.96 s
same,Maximum on-bar time,[1]; [5],96.10 ± 23.06 s
same,Number of standings,[1]; [5],17.80 ± 4.32
same,Average on-bar time,[1]; [6],26.50 ± 5.88 s
same,Maximum on-bar time,[1]; [6],34.88 ± 6.68 s
same,Number of standings,[1]; [6],43.25 ± 3.89
same,Average on-bar time,[1]; [7],20.00 ± 1.28 s
same,Maximum on-bar time,[1]; [7],24.13 ± 1.67 s
same,Number of standings,[1]; [7],25.13 ± 3.25
same,Average on-bar time,[2]; 3 mg/kg intragastric,212.67 ± 51.43 s
same,Maximum on-bar time,[2]; 3 mg/kg intragastric,266.63 ± 50.73 s
same,Number of standings,[2]; 3 mg/kg intragastric,1.75 ± 0.60
same,Average on-bar time,[2]; 10 mg/kg intragastric,41.67 ± 16.50 s
same,Maximum on-bar time,[2]; 10 mg/kg intragastric,69.67 ± 28.71 s
same,Number of standings,[2]; 10 mg/kg intragastric,7.89 ± 0.98
same,Average on-bar time,[2]; 30 mg/kg intragastric,12.29 ± 1.41 s
same,Maximum on-bar time,[2]; 30 mg/kg intragastric,18.00 ± 2.21 s
same,Number of standings,[2]; 30 mg/kg intragastric,13.00 ± 0.96
same,AUC(0-t),[3],138 µg·h/mL
same,Cmax,[3],36000 ng/mL
same,Tmax,[3],0.5 h
same,AUC(0-inf),[3]; read-out: AUCINF—pred,138 µg·h/mL
same,half-life,[3]; read-out: T½ (converted),2.29 h
